Results on eight molecules are retold here after publication PMC4187121, “Flexible Enantioselectivity of Tryptophanase Attributable to Benzene Ring in Heterocyclic Moiety of D-Tryptophan” (Life : Open Access Journal, 2012).

Entries after “also recorded” stand apart in the source; their conditions may differ.

The target of experiment [1] is T1, tryptophanase (Escherichia coli, UniProt P0A853).
T1 construct: purchased Sigma-Aldrich Co. (St. Louis, MO, USA)
Nature of the experiment: L-tryptophan degradation by tryptophanase, kinetic and inhibition analysis (indole formation, Ehrlich reagent). In kind it is biochemical, E. coli. The following applies: for effect on L-tryptophan degradation: in the absence and presence of DAP; for Ki: read-out: Inhibition const. Ki. The procedure: (§1) When tryptophanase degraded L-tryptophan, all reaction mixtures included 0.2 mM of pyridoxal 5′-phosphate and 0.23 μM of tryptophanase in 100 mM potassium phosphate buffer of pH 8.3. DAP concentrations were prepared to the required concentrations of 0, 0.6, 1.2, 1.9 or 3.1 M. L-tryptophan. The reaction mixture was prepared to a concentration of 98, 108, 128, 137, 147, 167, 196, 225, 245, 294, 343, 392, 490, 680 or 980μM for kinetic analyses. Reactions were performed at 37 °C for 30 min in a Dry Thermo Unit DTU-1B (Taitec, Tokyo, Japan). Although D-tryptophan in addition to L-tryptophan was also degraded into indole in the presence of DAP, an indole production amount from D-tryptophan was neglected at this reaction temperature and time because the catalytic efficiency for D-tryptophan was 0.3% of that for L-tryptophan. On the other hand, the reaction condition of D-tryptophan degradation differed in several ways from that of L-tryptophan degradation. Each concentration of pyridoxal 5′-phosphate and tryptophanase was 1.2 mM and 0.92μM, and additionally reaction temperature and time was 55 °C and 2 h, respectively. All the other reaction conditions were the same as in the L-tryptophan degradation.
(§2) The total volume of the reaction mixture was 2 mL per tube. The reaction was stopped by adding 2 mL of n-butanol, which was vigorously mixed and then immediately centrifuged at approximately 1,000 G for 10 min. After centrifugation, the reaction mixture was separated into two layers of butanol and aqueous solutions in which indole was equally distributed. The supernatant butanol layer was extracted to be mixed with an equal volume of Ehrlich reagent, then colored red at 60 °C for 30 min in Dry Thermo Unit. […] Tryptophanase activity was assayed in triplicate at the same substrate concentration and then averaged. Initial velocity was computed based on the averaged value.
(§3) Initial velocities were defined by indole that formed within 1 minute after 1 mg of tryptophanase was added. Then the reciprocal of (initial velocity/[E] (enzyme concentration)) (ordinate) versus the reciprocal of substrate concentration (abscissa) was drawn for each concentration of L- or D-tryptophan. These double-reciprocal plots were drawn based on the least squares method to calculate kinetic parameters. Kcatwas determined from the reciprocal of the intercepts of these double-reciprocal plots, and the Michaelis constant Km from substrate concentration at 1/v = 0 in the absence of inhibitor. In noncompetitive inhibition, two inhibition constants of Ki (=[E][I]/[EI], E: enzyme; I: inhibitor; EI: enzyme-inhibitor complex) and Ki' (=[ES][I]/[ESI], ES: enzyme-substrate complex; ESI: enzyme-substrate-inhibitor complex) were determined from the slopes and from the intercepts, respectively. In the mixed type inhibition, Ki and Ki' were determined from x and y coordinates of the fixed point in the second quadrant.

Experiment [2] addresses T1, tryptophanase. Nature of the experiment: D-tryptophan degradation by tryptophanase in the presence of 3.1 M DAP, kinetic and inhibition analysis. Conditions: for effect on D-tryptophan degradation: in the presence of 3.1 M DAP. The format is biochemical, E. coli. Here is the method: as §1, §2, §3
Where [3] appears, read: inhibitor of L-tryptophan degradation, DAP 0 M.
[4] abbreviates: inhibitor of L-tryptophan degradation, DAP 0.6 M.
The mark [5] stands for this setting: inhibitor of L-tryptophan degradation, DAP 1.2 M.
The mark [6] stands for this setting: inhibitor of L-tryptophan degradation, DAP 1.9 M.
[7] abbreviates: substrate L-Trp, DAP 0 M (Table 2).
Where [8] appears, read: substrate L-Trp, DAP 0.6 M (Table 2).
The mark [9] stands for this setting: substrate L-Trp, DAP 1.2 M (Table 2).
The mark [10] stands for this setting: inhibitor of D-tryptophan degradation, 3.1 M DAP.

T1 sequence (P0A853 whole entry): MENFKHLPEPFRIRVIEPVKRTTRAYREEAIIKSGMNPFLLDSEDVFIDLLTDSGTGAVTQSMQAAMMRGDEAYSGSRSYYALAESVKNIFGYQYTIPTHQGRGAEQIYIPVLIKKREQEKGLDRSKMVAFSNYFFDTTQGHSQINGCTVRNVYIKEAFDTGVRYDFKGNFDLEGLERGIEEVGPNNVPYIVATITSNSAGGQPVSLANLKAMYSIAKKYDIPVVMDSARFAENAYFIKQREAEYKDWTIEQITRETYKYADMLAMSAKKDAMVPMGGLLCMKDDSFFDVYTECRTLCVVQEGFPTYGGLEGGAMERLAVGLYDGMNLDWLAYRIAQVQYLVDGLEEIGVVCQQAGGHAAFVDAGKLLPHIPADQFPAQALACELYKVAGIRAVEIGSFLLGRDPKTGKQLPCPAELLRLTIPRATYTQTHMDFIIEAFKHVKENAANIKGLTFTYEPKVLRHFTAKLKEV

As to `N[C@@H](Cc1c[nH]c2ccccc12)C(=O)O` [L-tryptophan], the “reduced values of kcat compared to the values in the absence of DAP” value in experiment [1] (L-tryptophan degradation in the presence of DAP) was 18–45%.

Turning to `N[C@H](Cc1ccc(O)cc1)C(=O)O` [D-tyrosine], the “effect on L-tryptophan degradation” value in experiment [1] is “no effect”. For the same molecule, the “effect on D-tryptophan degradation” value in experiment [2] is given as “no effect”.

Turning to `N.N.O=P(O)(O)O` [DAP, diammoniumhydrogen phosphate], the Inhibition type entry in experiment [1] (DAP as inhibitor of L-tryptophan degradation) is listed as “noncompetitive inhibitor”.

For `N[C@H](Cc1c[nH]c2ccccc12)C(=O)O` [D-tryptophan], the “catalytic efficiency, percent of that for L-tryptophan” value in experiment [1] (in the presence of DAP, 37 °C, 30 min) stood at 0.3%. The Inhibition type entry is “competitive inhibitor” in experiment [1] (setting [3]); “mixed” in experiment [1] (setting [4]); “mixed” in experiment [1] (setting [5]); “mixed” in experiment [1] (setting [6]); “noncompetitive inhibition type” in experiment [1] (inhibitor of L-tryptophan degradation, DAP 3.1 M). For the same molecule, the Ki in experiment [1] (setting [3]) stood at 21000 µM; in experiment [1] (setting [4]), 25000 µM; in experiment [1] (setting [5]), 30000 µM; in experiment [1] (setting [6]), 38000 µM. Moreover, the “Ki/Ki'” value in experiment [1] (with increasing DAP concentrations (0 to 3.1 M), L-tryptophan degradation) was 0 to 1.0.

As for `O=C(O)C(=O)Cc1c[nH]c2ccccc12` [indole pyruvate], in experiment [1] (L-tryptophan degradation), the “Ki, fold stronger than for pyruvate” value came out at 15 fold. Besides, the Inhibition type entry in experiment [1] (setting [7]) is “competitive”; in experiment [1] (setting [8]) it was “mixed”; in experiment [1] (setting [9]) it was “noncompetitive”. The Ki in experiment [1] (setting [7]), in experiment [1] (setting [8]) and in experiment [1] (setting [9]) was 200 µM throughout. Further, the “Inhibition const. Ki'” value in experiment [1] (setting [8]) is 300 µM; in experiment [1] (setting [9]), 200 µM.

`N[C@H](Cc1c[nH]cn1)C(=O)O` [D-histidine]: in experiment [1], the “effect on L-tryptophan degradation” value is given as “no effect; also recorded: did not interact”. Moreover, the “effect on D-tryptophan degradation” value in experiment [2] is on record as “inhibited”. In addition, in experiment [2] (setting [10]), the Inhibition type entry is given as “competitively inhibited” and the Ki came to 400 µM.

In the case of `CC(=O)C(=O)O` [potassium pyruvate], in experiment [1] (setting [7]), the Inhibition type result was “competitively inhibited; also recorded: competitive” and the Ki came to 3000 µM.

Take `N[C@H](Cc1ccccc1)C(=O)O` [D-phenylalanine]: the “effect on L-tryptophan degradation” value in experiment [1] is listed as “no effect”. Also, the “effect on D-tryptophan degradation” value in experiment [2] was “little”.

The term Ki denotes a measure of affinity in units of concentration, obtained from inhibition or displacement.
